Data: patent US10874670B2, “Substituted fused heteroaromatic compounds as kinase inhibitors and the use thereof” (IMPACT THERAPEUTICS, INC., priority 2017, dated 2020)

Experiments:
ATM enzyme (human) = ATM enzyme (human) (Homo sapiens, UniProt Q13315); assay: ATM kinase assay (HTRF, GST-cMyc-p53 substrate); type: biochemical; settings: 0.5 h, read-out: Inh (%) of ATM kinase; for inhibition at 1 µM: C 1 μm (final concentration of compound); for inhibition at 0.01 µM: C 0.01 μm (final concentration of compound); for inhibition at 0.1 µM: C 0.1 μm (final concentration of compound)
Method: In Vitro Inhibition of ATM by N,N-dimethyl-3-(4-(1-(tetrahydro-2H-pyran-4-yl)-[1,2,4]triazolo[4,3-a]quinoxalin-8-yl)phenoxy)propan-1-amine and its Analogues was Determined by ATM Kinase Assay
The reaction was initiated by the addition of a Mg/ATP mixture and incubation for 30 minutes at room temperature, the reaction was quenched by the addition of a stop solution containing EDTA. Finally, the detection buffer containing the d2-labeled anti-GST monoclonal antibody and the europium-labeled anti-phospho p53 (Ser15) antibody was added. The plate was then read in time resolved fluorescence mode and the homogeneous time resolved fluorescence (HTRF) signal was determined according to the equation: HTRF=10000×(Em665nm/Em620nm). Each compound sample was repeated in duplicate. The experiment negative control was all components except of the ATM enzyme and the positive control contained all components. All reactions were quenched by adding EDTA.
ATM kinase inhibition was detected by using the method described above. The curve equation for calculating IC50 value is as follows:
[formula] • wherein, C is the concentration of compound and D is the slope factor.

[1] = test system: human colon cancer cell SW620; assay: MTT assay, growth of SW620 cells, compounds combined with CPT-11; type: cell-based; settings: Homo sapiens, SW-620, 120 h; combined with CPT-11 (205 nM medium), 5 days, MTT
Method: Inhibitory effects of N,N-dimethyl-3-(4-(1-(tetrahydro-2H-pyran-4-yl)-[1,2,4]triazolo[4,3-a]quinoxalin-8-yl)phenoxy)propan-1-amine and its Analogues Combined with CPT-11 on the Growth of Human Colon Cancer Cell SW620 were Determined by MTT Assay
SW620 cells were digested by trypsinase, centrifuged at 800 rpm for 5 minutes, the supernatant was discarded, resuspended with fresh medium (RPMI 1640 medium+10% FBS) and counted. The cells were seeded into 96-well cell culture plate with appropriate cell density and incubated overnight in a 37° C. 5% CO2 incubator. The stock solutions of the tested compound and the reference compound AZD0156 were serially diluted to 8 concentrations by DMSO at the ratios of 1:3 and 1:10, respectively, the first concentration was 10 μM or 1 μM, and the last concentration was negative control of DMSO (0 μM, the final concentration of DMSO was 1%). 5 μL of each concentration was added to 120 μL of medium (25 times diluted) and mixed by shaking. The overnight cells were taken and the culture medium was removed, 195 μL of fresh medium containing 205 nM CPT-11 was added to each well, and 5 μL of diluted medium containing the corresponding concentration of the tested sample was added respectively, and the culture plate was then placed in the 5% CO2 cell culture incubator at 37° C. for 5 days. After removing the original solution, 100 pt of fresh serum-free DMEM medium containing MTT (0.5 mg/mL) was added to each well, the culture was continued. After 4 hours, the original solution was removed, 100 μL of DMSO was added into each well, the 96-well plates were shaken away from light for 10 minutes and placed in a multi-function reader to read the absorbance at the wavelength of 552/630/690 nm. GraphPad Prism 6.0 was used to analyze the data. The inhibitory activity of compounds on cell proliferation was plotted based on cell viability and compound concentration. The IC50 value was fitted by a sigmoidal dose response curve equation Y=100/(1+10^(Log C−Log IC50)), where C was the concentration of compound.
Table 3 summarizes the inhibitory effects of compounds combined with CPT-11 on the growth of human colon cancer cell SW620 (IC50).

Sequence of ATM enzyme (human) (Q13315 whole entry): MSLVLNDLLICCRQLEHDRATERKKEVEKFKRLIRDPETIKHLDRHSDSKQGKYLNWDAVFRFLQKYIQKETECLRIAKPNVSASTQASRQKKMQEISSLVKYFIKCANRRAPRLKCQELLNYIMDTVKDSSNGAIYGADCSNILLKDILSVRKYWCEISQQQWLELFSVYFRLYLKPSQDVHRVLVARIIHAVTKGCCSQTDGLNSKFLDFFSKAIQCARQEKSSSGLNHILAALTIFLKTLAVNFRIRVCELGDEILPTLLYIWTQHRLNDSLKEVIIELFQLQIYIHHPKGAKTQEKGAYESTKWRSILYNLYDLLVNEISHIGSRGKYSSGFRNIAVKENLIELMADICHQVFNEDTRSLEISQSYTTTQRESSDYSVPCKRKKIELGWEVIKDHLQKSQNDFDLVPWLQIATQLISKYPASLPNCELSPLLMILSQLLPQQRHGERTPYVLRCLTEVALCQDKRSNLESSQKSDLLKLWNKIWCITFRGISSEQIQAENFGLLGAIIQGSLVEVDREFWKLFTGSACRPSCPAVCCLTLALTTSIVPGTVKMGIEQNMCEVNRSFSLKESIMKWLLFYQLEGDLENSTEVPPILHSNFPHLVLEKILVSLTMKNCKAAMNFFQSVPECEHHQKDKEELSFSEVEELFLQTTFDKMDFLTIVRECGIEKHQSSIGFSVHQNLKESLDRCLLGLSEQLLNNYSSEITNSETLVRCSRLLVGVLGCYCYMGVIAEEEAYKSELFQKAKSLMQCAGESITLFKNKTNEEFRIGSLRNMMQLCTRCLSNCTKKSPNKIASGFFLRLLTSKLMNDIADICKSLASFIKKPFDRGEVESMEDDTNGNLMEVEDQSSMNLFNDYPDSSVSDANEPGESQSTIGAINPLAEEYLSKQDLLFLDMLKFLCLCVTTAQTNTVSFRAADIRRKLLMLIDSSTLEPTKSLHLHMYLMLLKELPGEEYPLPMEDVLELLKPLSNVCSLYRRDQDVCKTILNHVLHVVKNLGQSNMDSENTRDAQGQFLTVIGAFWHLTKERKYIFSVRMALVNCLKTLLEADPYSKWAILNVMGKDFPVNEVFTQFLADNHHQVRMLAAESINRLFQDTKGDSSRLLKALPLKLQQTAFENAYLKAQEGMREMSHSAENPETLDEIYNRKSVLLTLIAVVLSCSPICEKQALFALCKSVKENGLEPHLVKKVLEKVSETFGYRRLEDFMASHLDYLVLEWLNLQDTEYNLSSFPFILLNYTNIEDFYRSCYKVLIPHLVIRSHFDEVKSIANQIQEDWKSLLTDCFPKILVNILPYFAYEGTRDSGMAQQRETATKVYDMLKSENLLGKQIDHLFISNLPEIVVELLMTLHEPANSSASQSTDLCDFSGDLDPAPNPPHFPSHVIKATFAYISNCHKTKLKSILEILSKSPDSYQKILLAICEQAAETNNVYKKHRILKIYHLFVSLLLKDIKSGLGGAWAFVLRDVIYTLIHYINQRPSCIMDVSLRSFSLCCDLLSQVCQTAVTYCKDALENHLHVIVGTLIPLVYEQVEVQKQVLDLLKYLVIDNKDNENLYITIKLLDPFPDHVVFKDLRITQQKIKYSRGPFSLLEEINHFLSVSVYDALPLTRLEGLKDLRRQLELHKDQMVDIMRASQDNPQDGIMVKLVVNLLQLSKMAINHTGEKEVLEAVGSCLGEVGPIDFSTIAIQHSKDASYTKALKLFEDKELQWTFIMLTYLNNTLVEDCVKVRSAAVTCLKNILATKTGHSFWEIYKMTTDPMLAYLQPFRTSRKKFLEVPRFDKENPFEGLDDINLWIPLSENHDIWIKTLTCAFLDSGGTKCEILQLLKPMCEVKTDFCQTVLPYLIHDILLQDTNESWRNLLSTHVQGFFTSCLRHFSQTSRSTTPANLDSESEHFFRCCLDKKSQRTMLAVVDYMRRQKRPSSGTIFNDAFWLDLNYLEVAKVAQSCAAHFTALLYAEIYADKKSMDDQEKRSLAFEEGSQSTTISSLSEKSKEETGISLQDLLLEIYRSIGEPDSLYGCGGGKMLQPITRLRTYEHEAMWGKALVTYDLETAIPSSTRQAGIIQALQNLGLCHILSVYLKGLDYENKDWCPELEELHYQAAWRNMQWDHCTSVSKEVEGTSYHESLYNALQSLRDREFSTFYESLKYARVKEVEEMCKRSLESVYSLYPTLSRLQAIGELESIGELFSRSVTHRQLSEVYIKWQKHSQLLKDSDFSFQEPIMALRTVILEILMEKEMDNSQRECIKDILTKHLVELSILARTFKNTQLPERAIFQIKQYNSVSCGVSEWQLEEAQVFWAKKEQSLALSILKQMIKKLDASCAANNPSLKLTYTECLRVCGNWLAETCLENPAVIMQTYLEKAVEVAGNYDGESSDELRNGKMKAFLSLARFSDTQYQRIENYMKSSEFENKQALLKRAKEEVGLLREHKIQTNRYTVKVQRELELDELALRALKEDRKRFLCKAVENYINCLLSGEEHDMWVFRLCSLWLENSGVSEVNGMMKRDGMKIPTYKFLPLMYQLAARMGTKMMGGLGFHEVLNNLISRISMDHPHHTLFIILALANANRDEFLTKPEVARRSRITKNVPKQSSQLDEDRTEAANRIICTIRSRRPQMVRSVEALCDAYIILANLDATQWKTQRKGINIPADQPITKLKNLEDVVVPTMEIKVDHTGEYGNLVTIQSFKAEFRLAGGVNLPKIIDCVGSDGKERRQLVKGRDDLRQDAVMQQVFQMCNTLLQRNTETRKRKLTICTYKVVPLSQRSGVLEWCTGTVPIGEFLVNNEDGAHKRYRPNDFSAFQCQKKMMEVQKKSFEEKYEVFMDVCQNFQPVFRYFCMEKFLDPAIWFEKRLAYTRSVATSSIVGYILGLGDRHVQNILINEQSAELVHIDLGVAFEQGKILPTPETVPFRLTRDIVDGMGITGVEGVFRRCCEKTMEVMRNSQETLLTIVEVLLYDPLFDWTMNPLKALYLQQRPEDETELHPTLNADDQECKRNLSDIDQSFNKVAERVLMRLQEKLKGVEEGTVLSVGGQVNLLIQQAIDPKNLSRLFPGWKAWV

Row | Compound | IC50 [1] | inhibition at 1 µM (ATM enzyme (human)) | also measured
1 | CN(C)CCCOc1ccc(-c2cnc3ncc4nnc(C5CCOCC5)n4c3c2)cn1 [Example 1, N,N-dimethyl-3-((5-(1-(tetrahydro-2H-pyran-4-yl)pyrido[2,3-e][1,2,4]triazolo[4,3-a]pyrazin-8-yl)pyridin-2-yl)oxy)propan-1-amine] | > 100000 nM | – | inhibition at 10 µM (ATM enzyme (human); C 10 μm (final concentration of compound)): 90%
2 | CN(C)CCCOc1ccc(-c2cnc3ncc4nnc(C5CCOCC5)n4c3c2)cc1 [Example 2, N,N-dimethyl-3-(4-(1-(tetrahydro-2H-pyran-4-yl)pyrido[2,3-e][1,2,4]triazolo[4,3-a]pyrazin-8-yl)phenoxy)propan-1-amine] | > 100000 nM | 57% | –
3 | CN(C)CCCOc1ncc(-c2ccc3ncc4nnc(C5CCOCC5)n4c3c2)cn1 [Example 6, N,N-dimethyl-3-((5-(1-(tetrahydro-2H-pyran-4-yl)-[1,2,4]triazolo[4,3-a]quinoxalin-8-yl)pyrimidin-2-yl)oxy)propan-1-amine] | > 100000 nM | 57% | –
4 | CN(C)CCCOc1cnc(-c2ccc3ncc4nnc(C5CCOCC5)n4c3c2)nc1 [Example 7, N,N-dimethyl-3-((2-(1-(tetrahydro-2H-pyran-4-yl)-[1,2,4]triazolo[4,3-a]quinoxalin-8-yl)pyrimidin-5-yl)oxy)propan-1-amine] | 3100 nM | 40% | –
5 | CN(C)CCCOc1cnc(-c2ccc3ncc4nnc(C5CCOCC5)n4c3c2)cn1 [Example 8, N,N-dimethyl-3-((5-(1-(tetrahydro-2H-pyran-4-yl)-[1,2,4]triazolo[4,3-a]quinoxalin-8-yl)pyrazin-2-yl)oxy)propan-1-amine] | 3300 nM | 38% | –
6 | CN(C)CCOc1ccc(-c2ccc3ncc4nnc(C5CCOCC5)n4c3c2)cc1 [Example 9, N,N-dimethyl-2-(4-(1-(tetrahydro-2H-pyran-4-yl)-[1,2,4]triazolo[4,3-a]quinoxalin-8-yl)phenoxy)ethan-1-amine] | 1940 nM | 72% | –
7 | CN(C)CCCNc1ccc(-c2ccc3ncc4nnc(C5CCOCC5)n4c3c2)cc1 [Example 10, N-(3-(dimethylamino)propyl)-4-(1-(tetrahydro-2H-pyran-4-yl)-[1,2,4]triazolo[4,3-a]quinoxalin-8-yl)aniline] | 5210 nM | 85% | –
8 | CN1CCN(c2ccc(-c3ccc4ncc5nnc(C6CCOCC6)n5c4c3)cc2)CC1 [Example 13, 8-(4-(4-methylpiperazin-1-yl)phenyl)-1-(tetrahydro-2H-pyran-4-yl)-[1,2,4]triazolo[4,3-a]quinoxaline] | > 100000 nM | 93% | inhibition at 0.01 µM (ATM enzyme (human)): 8%; inhibition at 0.1 µM (ATM enzyme (human)): 49%
9 | C[C@@H]1CN(c2ccc(-c3ccc4ncc5nnc(C6CCOCC6)n5c4c3)cc2)C[C@H](C)N1C [Example 14, 1-(tetrahydro-2H-pyran-4-yl)-8-(4-((3S,5R)-3,4,5-trimethylpiperazin-1-yl)phenyl)-[1,2,4]triazolo[4,3-a]quinoxaline] | > 100000 nM | 96% | inhibition at 0.01 µM (ATM enzyme (human)): 20%; inhibition at 0.1 µM (ATM enzyme (human)): 52%
10 | CN(C)C1CCN(c2ccc(-c3ccc4ncc5nnc(C6CCOCC6)n5c4c3)cn2)CC1 [Example 15, N,N-dimethyl-1-(5-(1-(tetrahydro-2H-pyran-4-yl)-[1,2,4]triazolo[4,3-a]quinoxalin-8-yl)pyridin-2-yl)piperidin-4-amine] | 485 nM | 98% | inhibition at 0.01 µM (ATM enzyme (human)): 33%; inhibition at 0.1 µM (ATM enzyme (human)): 80%
11 | C[C@@H]1CN(c2nnc3cnc4ccc(-c5ccc(OCCCN(C)C)nc5)cc4n23)C[C@H](C)N1C [Example 26, N,N-dimethyl-3-((5-(1-((3S,5R)-3,4,5-trimethylpiperazin-1-yl)-[1,2,4]triazolo[4,3-a]quinoxalin-8-yl)pyridin-2-yl)oxy)propan-1-amine] | 57 nM | – | –
12 | CNC1CCN(c2ccc(-c3ccc4ncc5nnc(N6C[C@@H](C)N(C)[C@@H](C)C6)n5c4c3)cc2F)CC1 [Example 94, N-methyl-1-(2-fluoro-4-(1-((3S,5R)-3,4,5-trimethylpiperazin-1-yl)-[1,2,4]triazolo[4,3-a]quinoxalin-8-yl)phenyl)piperidin-4-amine] | 13 nM | – | –
13 | CCNC1CCN(c2ccc(-c3ccc4ncc5nnc(N6C[C@@H](C)N(C)[C@@H](C)C6)n5c4c3)cc2F)CC1 [Example 96, N-ethyl-1-(2-fluoro-4-(1-((3S,5R)-3,4,5-trimethylpiperazin-1-yl)-[1,2,4]triazolo[4,3-a]quinoxalin-8-yl)phenyl)piperidin-4-amine] | 15 nM | – | –
14 | C[C@@H]1CN(c2nnc3cnc4ccc(-c5ccc(OCCCN(C)C)c(C(F)(F)F)c5)cc4n23)C[C@H](C)O1 [Example 102, N,N-dimethyl-3-(2-(trifluoromethyl)-4-(1-((2S,6R)-2,6-dimethylmorpholino)-[1,2,4]triazolo[4,3-a]quinoxalin-8-yl)phenoxy)propan-1-amine] | 21.1 nM | – | –
15 | C[C@@H]1CN(c2nnc3cnc4ccc(-c5ccc(N6CCC(N(C)C)CC6)cc5)cc4n23)C[C@H](C)O1 [Example 103, 1-(4-(1-((2S,6R)-2,6-dimethylmorpholino)-[1,2,4]triazolo[4,3-a]quinoxalin-8-yl)phenyl)-N,N-dimethylpiperidin-4-amine] | 176 nM | – | –
16 | C[C@@H]1CN(c2nnc3cnc4ccc(-c5ccc(N6CCC(N(C)C)CC6)c(F)c5)cc4n23)C[C@H](C)O1 [Example 104, 1-(4-(1-((2S,6R)-2,6-dimethylmorpholino)-[1,2,4]triazolo[4,3-a]quinoxalin-8-yl)-2-fluorophenyl)-N,N-dimethylpiperidin-4-amine] | 28.2 nM | – | –
17 | CN(C)CCCOc1ccc(-c2ccc3ncc4nnc(N5CCCCC5)n4c3c2)cc1C(F)(F)F [Example 111, N,N-dimethyl-3-(4-(1-(piperidin-1-yl)-[1,2,4]triazolo[4,3-a]quinoxalin-8-yl)-2-(trifluoromethyl)phenoxy)propan-1-amine] | 16.2 nM | – | –
18 | CN(C)C1CCN(c2ccc(-c3ccc4ncc5nnc(N6CCCCC6)n5c4c3)cc2F)CC1 [Example 112, 1-(2-fluoro-4-(1-(piperidin-1-yl)-[1,2,4]triazolo[4,3-a]quinoxalin-8-yl)phenyl)-N,N-dimethylpiperidin-4-amine] | 21.9 nM | – | –
19 | CNC1CCN(c2ccc(-c3ccc4ncc5nnc(N6C[C@@H](C)N(C)[C@@H](C)C6)n5c4n3)cc2F)CC1 [Example 117, 1-(2-fluoro-4-(9-((3S,5R)-3,4,5-trimethylpiperazin-1-yl)pyrido[3,2-e][1,2,4]triazolo[4,3-a]pyrazin-2-yl)phenyl)-N-methylpiperidin-4-amine] | 47.5 nM | – | –
20 | CCNC1CCN(c2ccc(-c3ccc4ncc5nnc(N6C[C@@H](C)N(C)[C@@H](C)C6)n5c4n3)cc2F)CC1 [Example 119, N-ethyl-1-(2-fluoro-4-(9-((3S,5R)-3,4,5-trimethylpiperazin-1-yl)pyrido[3,2-e][1,2,4]triazolo[4,3-a]pyrazin-2-yl)phenyl)piperidin-4-amine] | 43.1 nM | – | –
21 | CN(C)CCCOc1ccc(-c2ccc3ncc4nnc(C5CCOCC5)n4c3n2)cc1F [Example 139, 3-(2-fluoro-4-(9-(tetrahydro-2H-pyran-4-yl)pyrido[3,2-e][1,2,4]triazolo[4,3-a]pyrazin-2-yl)phenoxy)-N,N-dimethylpropan-1-amine] | 262 nM | – | –
22 | CN(C)CCCOc1ccc(-c2ccc3ncc4nnc(C5CCOCC5)n4c3n2)cc1Cl [Example 140, 3-(2-chloro-4-(9-(tetrahydro-2H-pyran-4-yl)pyrido[3,2-e][1,2,4]triazolo[4,3-a]pyrazin-2-yl)phenoxy)-N,N-dimethylpropan-1-amine] | 213 nM | – | –
